Experimental data taken from patent US9617242B2, “Histone demethylase inhibitors” (priority 2012, dated 2017).
Counter-ions that a name gives are not always drawn. Like-named read-outs stand apart in the source and are kept apart here.

Columns and labels:
JMJD2C = JMJD2C (Homo sapiens (Human), UniProt Q9H3R0); assay: JMJD2C in vitro enzyme inhibition assay (TR-FRET); format: biochemical
KDM5A/B = assay: In vitro cell-based assay: tri-methyl H3K4 immuno-blotting in ZR-75-1 breast cancer cells
Description: This quantitative immuno-blotting assay measures the amount tri-methylated histone H3 at amino acid Lysine number 4, a specific substrate […] of the direct enzymatic activity of the histone demethylases KDM5A and KDM5B from extracts of the ZR-75-1 breast cancer cell line.
This assay is a fluorometric immunoassay for the quantification of tri-methyl H3K4 extracted from cells treated with test compound and is used as a measure of the cellular inhibition of KDM5A/B.
Extracts were prepared containing all of the cellular histone material using detergent based lysis and sonication methods. These lysates were subsequently normalized for total protein content using a colorimetric bicinchonic acid assay (MicroBCA Pierce/Thermo Scientific). Normalized cell extracts were then subjected to typical immuno-blotting procedures using NuPage reagents (Life Technologies). Electrophoretically separated histones were then transferred and immobilized using polyvinylidene difluoride membrane (Immobilon-FL Millipore). The amount of tri-methylated lysine 4 of histone H3 was detected using an antibody specific to the tri-methylated state (Cell Signaling Technologies) and quantified on an infrared imager using a densitometry software package (Odyssey CLx, Image Studio, Li-Cor). This background subtracted densitometry value was reported as a ration of the GAPDH amount for that sample and then calculated as a percent of the DMSO treated sample. The software package XL-fit (IDBS) was then used to calculate a relative IC50 value for the dilution series of a given test compound according to the equation: fit=(D+((Vmax*(x^n))/((x^n)+(Km^n)))).

Jarid1A = Jarid1A (Homo sapiens (Human), UniProt P29375); assay: Jarid1A in vitro enzyme inhibition assay (TR-FRET); format: biochemical
Jarid1B = Jarid1B (Homo sapiens (Human), UniProt Q9UGL1); assay: Jarid1B in vitro enzyme inhibition assay (TR-FRET); format: biochemical
[1] = 72 hours, read-out: Cellular IC50

Chain of JMJD2C (Q9H3R0 2-372): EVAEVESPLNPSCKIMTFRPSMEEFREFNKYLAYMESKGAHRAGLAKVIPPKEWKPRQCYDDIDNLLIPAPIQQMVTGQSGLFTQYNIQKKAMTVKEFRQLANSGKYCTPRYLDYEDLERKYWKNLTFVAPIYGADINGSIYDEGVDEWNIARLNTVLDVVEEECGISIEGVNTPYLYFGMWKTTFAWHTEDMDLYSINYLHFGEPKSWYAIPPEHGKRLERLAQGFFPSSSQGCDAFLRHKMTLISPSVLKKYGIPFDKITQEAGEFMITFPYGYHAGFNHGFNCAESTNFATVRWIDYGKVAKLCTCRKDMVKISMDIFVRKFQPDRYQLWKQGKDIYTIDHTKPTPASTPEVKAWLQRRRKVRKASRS
Chain of Jarid1B (Q9UGL1 2-751): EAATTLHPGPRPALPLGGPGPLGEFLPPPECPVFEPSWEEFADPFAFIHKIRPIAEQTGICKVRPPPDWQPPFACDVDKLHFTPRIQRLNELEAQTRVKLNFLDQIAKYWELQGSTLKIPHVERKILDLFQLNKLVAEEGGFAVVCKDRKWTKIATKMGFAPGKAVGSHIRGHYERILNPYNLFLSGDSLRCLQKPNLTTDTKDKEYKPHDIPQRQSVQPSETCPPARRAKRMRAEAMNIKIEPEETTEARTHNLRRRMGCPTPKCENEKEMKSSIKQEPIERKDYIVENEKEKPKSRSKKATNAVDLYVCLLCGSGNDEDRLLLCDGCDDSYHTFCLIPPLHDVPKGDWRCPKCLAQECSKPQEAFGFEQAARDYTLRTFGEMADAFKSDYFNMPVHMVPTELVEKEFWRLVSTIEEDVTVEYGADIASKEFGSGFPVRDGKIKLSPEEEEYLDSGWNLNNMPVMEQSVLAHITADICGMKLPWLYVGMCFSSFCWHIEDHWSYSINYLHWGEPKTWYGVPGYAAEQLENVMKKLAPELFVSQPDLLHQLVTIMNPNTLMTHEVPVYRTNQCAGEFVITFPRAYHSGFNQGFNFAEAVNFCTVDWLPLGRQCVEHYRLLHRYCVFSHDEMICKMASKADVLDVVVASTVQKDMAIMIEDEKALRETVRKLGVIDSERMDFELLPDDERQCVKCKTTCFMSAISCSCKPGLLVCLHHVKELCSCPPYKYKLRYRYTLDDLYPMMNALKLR
Chain of Jarid1A (P29375 1-1090): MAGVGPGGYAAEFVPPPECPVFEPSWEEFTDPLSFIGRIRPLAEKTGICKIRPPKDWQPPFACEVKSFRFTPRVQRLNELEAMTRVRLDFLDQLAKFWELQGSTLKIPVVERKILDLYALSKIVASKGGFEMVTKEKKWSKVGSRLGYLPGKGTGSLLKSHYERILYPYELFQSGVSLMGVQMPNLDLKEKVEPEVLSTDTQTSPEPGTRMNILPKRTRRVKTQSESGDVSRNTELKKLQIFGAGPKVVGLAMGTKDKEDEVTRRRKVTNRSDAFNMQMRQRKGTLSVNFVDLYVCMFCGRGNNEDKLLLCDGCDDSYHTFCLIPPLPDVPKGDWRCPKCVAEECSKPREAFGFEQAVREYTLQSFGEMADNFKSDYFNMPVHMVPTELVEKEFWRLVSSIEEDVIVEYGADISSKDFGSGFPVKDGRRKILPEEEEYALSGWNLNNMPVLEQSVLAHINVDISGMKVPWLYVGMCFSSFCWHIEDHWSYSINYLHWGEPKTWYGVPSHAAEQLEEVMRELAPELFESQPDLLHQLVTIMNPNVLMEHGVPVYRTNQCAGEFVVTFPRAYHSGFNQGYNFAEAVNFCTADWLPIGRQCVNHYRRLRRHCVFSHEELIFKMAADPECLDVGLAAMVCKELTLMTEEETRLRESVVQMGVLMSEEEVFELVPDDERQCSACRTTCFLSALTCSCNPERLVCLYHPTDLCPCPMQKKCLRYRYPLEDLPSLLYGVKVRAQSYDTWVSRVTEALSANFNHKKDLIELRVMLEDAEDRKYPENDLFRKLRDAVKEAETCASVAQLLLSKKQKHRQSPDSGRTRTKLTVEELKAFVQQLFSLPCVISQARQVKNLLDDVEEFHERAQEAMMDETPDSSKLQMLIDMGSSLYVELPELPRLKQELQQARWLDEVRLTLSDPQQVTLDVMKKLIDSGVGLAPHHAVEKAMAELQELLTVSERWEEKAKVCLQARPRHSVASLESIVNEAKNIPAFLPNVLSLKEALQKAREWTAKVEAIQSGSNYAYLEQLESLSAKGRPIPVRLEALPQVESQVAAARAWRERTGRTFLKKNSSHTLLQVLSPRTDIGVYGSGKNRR

IC50 (JMJD2C) [nM]	IC50 (KDM5A/B; [1]) [nM]	IC50 (Jarid1A) [nM]	IC50 (Jarid1B) [nM]	SMILES	IC50 (KDM5A/B; read-out: Cellular IC50, 72 hours) [nM]
< 100	1000 to 10000	< 100	< 100	O=C(O)c1ccncc1Nc1nn([C@@H]2CCOC2)c2ccc(F)cc12 [Example 67, 3-({5-fluoro-1-[(3R)-tetrahydrofuran-3-yl]-1H-indazol-3-yl}amino)pyridine-4-carboxylic acid]	
< 100	> 10000	< 100	< 100	O=C(O)c1ccncc1Nc1nn(CC(O)CO)c2ccc(F)cc12 (centres unmarked) [Example 48, 3-{[1-(2,3-dihydroxypropyl)-5-fluoro-1H-indazol-3-yl]amino}pyridine-4-carboxylic acid]	
< 100	1000 to 10000	< 100	< 100	CN1CCOC(CCn2nc(Nc3cnccc3C(=O)O)c3cc(F)ccc32)C1 (centres unmarked) [Example 58, 3-({5-fluoro-1-[2-(4-methylmorpholin-2-yl)ethyl]-1H-indazol-3-yl}amino)pyridine-4-carboxylic acid]	
< 100	1000 to 10000	< 100	< 100	O=C(O)c1ccncc1Nc1nn(C2CCOC2)c2ccc(F)cc12 (centres unmarked) [Example 54, 3-{[5-fluoro-1-(tetrahydrofuran-3-yl)-1H-indazol-3-yl]amino}pyridine-4-carboxylic acid]	
< 100	> 10000	< 100	< 100	COCCCn1nc(Nc2cnccc2C(=O)O)c2cc(F)ccc21 [Example 17, 3-{[5-fluoro-1-(methoxypropyl)-1H-indazol-3-yl]amino}pyridine-4-carboxylic acid]	
< 100		< 100	< 100	O=C(O)c1ccncc1Nc1nn(CC(O)C(F)(F)F)c2ccc(F)cc12 (centres unmarked) [Example 55, 3-{[5-fluoro-1-(3,3,3-trifluoro-2-hydroxypropyl)-1H-indazol-3-yl]amino}pyridine-4-carboxylic acid]	
< 100	1000 to 10000	< 100	< 100	Cn1nc(Nc2cnccc2C(=O)O)c2cc(F)ccc21 [Example 7, 3-[(5-fluoro-1-methyl-1H-indazol-3-yl)amino]pyridine-4-carboxylic acid]	
	1000 to 10000	< 100	< 100	O=C(O)c1ccncc1Nc1nn(CC2CC2)c2ccc(Cl)cc12 [Example 34, 3-{[5-chloro-1-(cyclopropylmethyl)-1H-indazol-3-yl]amino}pyridine-4-carboxylic acid]	
	100 to 1000	< 100	< 100	O=C(O)c1ccncc1Nc1nn(CCC(F)(F)F)c2ccc(Cl)cc12 [Example 35, 3-{[5-chloro-1-(3,3,3-trifluoropropyl)-1H-indazol-3-yl]amino}pyridine-4-carboxylic acid]	
	1000 to 10000	< 100	< 100	O=C(O)c1ccncc1Nc1nn(CC2CC2)c2ccc(F)cc12 [Example 16, 3-{[1-(cyclopropylmethyl)-5-fluoro-1H-indazol-3-yl]amino}pyridine-4-carboxylic acid]	
	100 to 1000	< 100	< 100	Cc1ccc2c(c1)c(Nc1cnccc1C(=O)O)nn2CC1CC1 [Example 37, 3-{[1-(cyclopropylmethyl)-5-methyl-1H-indazol-3-yl]amino}pyridine-4-carboxylic acid]	
< 100		< 100	< 100	O=C(O)c1ccncc1Nc1nn(CCN2CCCC2)c2ccc(Cl)cc12 [Example 78, 3-({5-chloro-1-[2-(pyrrolidin-1-yl)ethyl]-1H-indazol-3-yl}amino)pyridine-4-carboxylic acid]	
	1000 to 10000	< 100	< 100	CC(C)Cn1nc(Nc2cnccc2C(=O)O)c2cc(F)ccc21 [Example 25, 3-{[5-fluoro-1-(2-methylpropyl)-1H-indazol-3-yl]amino}pyridine-4-carboxylic acid]	
	1000 to 10000	< 100	< 100	CCCCCn1nc(Nc2cnccc2C(=O)O)c2cc(F)ccc21 [Example 18, 3-[(5-fluoro-1-pentyl-1H-indazol-3-yl)amino]pyridine-4-carboxylic acid]	
	100 to 1000	< 100	< 100	CCCn1nc(Nc2cnccc2C(=O)O)c2cc(Cl)ccc21 [Example 33, 3-[(5-chloro-1-propyl-1H-indazol-3-yl)amino]pyridine-4-carboxylic acid]	
	1000 to 10000	< 100	< 100	CCC(C)n1nc(Nc2cnccc2C(=O)O)c2cc(F)ccc21 (centres unmarked) [Example 26, 3-{[5-fluoro-1-(butan-2-yl)-1H-indazol-3-yl]amino}pyridine-4-carboxylic acid]	

Continued, molecule first:

SMILES	IC50 (JMJD2C) [nM]	IC50 (KDM5A/B; [1]) [nM]	IC50 (Jarid1A) [nM]	IC50 (Jarid1B) [nM]	IC50 (KDM5A/B; read-out: Cellular IC50, 72 hours) [nM]
O=C(O)c1ccncc1Nc1nn(CCN2CCC(F)(F)C2)c2ccc(F)cc12 [Example 71, 3-({1-[2-(3,3-difluoropyrrolidin-1yl)ethyl]-5-fluoro-1H-indazol-3-yl}amino)pyridine-4-carboxylic acid]	< 100	1000 to 10000	< 100	< 100	
CN1CCC(CCn2nc(Nc3cnccc3C(=O)O)c3cc(F)ccc32)CC1 [Example 41, 3-({5-fluoro-1-{2-(1-methylpiperidin-4-yl)ethyl]-1H-indazol-3-yl]amino)pyridine-4-carboxylic acid, trifluroacetic acid salt]	< 100		< 100	< 100	
O=C(O)c1ccncc1Nc1nn(CCN2CCC(F)(F)CC2)c2ccc(F)cc12 [Example 73, 3-({1-[2-(4,4-difluoropiperidin-1yl)ethyl]-5-fluoro-1H-indazol-3-yl}amino)pyridine-4-carboxylic acid]	< 100	100 to 1000	< 100	< 100	
CCCn1nc(Nc2cnccc2C(=O)O)c2cccc(F)c21 [Example 20, 3-[(7-fluoro-1-propyl-1H-indazol-3-yl)amino]pyridine-4-carboxylic acid]	< 100	1000 to 10000	< 100	< 100	
CN(C)CCOCCn1nc(Nc2cnccc2C(=O)O)c2cc(F)ccc21 [Example 27, 3-[(1-{2-[2-(dimethylamino)ethoxy]ethyl}-5-fluoro-1H-indazol-3-yl)amino]pyridine-4-carboxylic acid, acetic acid salt]	< 100	> 10000	< 100	< 100	
O=C(O)c1ccncc1Nc1nn(CCN2CCOCC2)c2ccc(F)cc12 [Example 56, 3-({5-fluoro-1-[2-(morpholin-1-yl)ethyl]-1H-indazol-3-yl}amino)pyridine-4-carboxylic acid]	< 100		< 100	< 100	
O=C(O)c1ccncc1Nc1nn(CCC2CCCNC2)c2ccc(F)cc12 (centres unmarked) [Example 47, 3-({5-fluoro-1-[2-(piperidin-3-yl)ethyl]-1H-indazol-3-yl}amino)pyridine-4-carboxylic acid, trifluoroacetic acid salt]	< 100		< 100	< 100	> 10000
Cn1nc(Nc2cnccc2C(=O)O)c2ccccc21 [Example 1, 3-[(1-methyl-1H-indazol-3-yl)amino]pyridine-4-carboxylic acid]	< 100	1000 to 10000	< 100	< 100	
N#CNC(=O)c1ccncc1Nc1nn(CCN2CCCC2)c2ccc(F)cc12 [Example 77, N-cyano-3-({5-fluoro-1-[2-(pyrrolidin-1-yl)ethyl]-1H-indazol-3-yl}amino)pyridine-4-carboxamide]	< 100		< 100	< 100	
O=C(O)c1ccncc1Nc1nn(CCCCCO)c2ccc(F)cc12 [Example 44, 3-{[5-fluoro-1-(5-hydroxypentyl)-1H-indazol-3-yl]amino}pyridine-4-carboxylic acid]	< 100		< 100	< 100	
Cn1nc(Nc2cnccc2C(=O)O)c2c(F)cccc21 [Example 13, 3-[(4-fluoro-1-methyl-1H-indazol-3-yl)amino]pyridine-4-carboxylic acid]	< 100		< 100	< 100	
O=C(O)c1ccncc1Nc1nn(CCc2ccccc2)c2ccc(F)cc12 [Example 19, 3-{[5-fluoro-1-(2-phenethyl)-1H-indazol-3-yl]amino}pyridine-4-carboxylic acid]		> 10000	< 100	< 100	
CN(C)CCOCCn1nc(Nc2cnccc2C(=O)O)c2cc(Cl)ccc21 [Example 40, 3-[(1-{2-[2-(dimethylamino)ethoxy]ethyl}-5-chloro-1H-indazol-3-yl)amino]pyridine-4-carboxylic acid, trifluoroacetic acid salt]	< 100		< 100	< 100	
CCCn1nc(Nc2cnccc2C(=O)O)c2cccc(C)c21 [Example 45]	100 to 1000	1000 to 10000			
O=C(O)c1ccncc1Nc1noc2ccccc12 [Example 3, 3-(1,2-benzoxazol-3-ylamino]pyridine-4-carboxylic acid]	< 100		< 100	< 100	
